One may read the inhibition as the percentage by which the read-out fell short of the control. For orientation: IC50 means the concentration that gives 50% inhibition.

The target of experiment [1] is T1, SIRT6 (Homo sapiens, UniProt Q8N6T7). The experiment in a line: Fluor-De-Lys (FDL) SIRT6 deacetylation assay. It counts as biochemical. The arrangement: The human full-length SIRT6 gene was inserted into the prokaryotic expression vector (pET-28a (+)); inferred from the pET-28a(+) vector, Ni-NTA purification and Ni-NTA biosensor loading); made in house; host or cells: Escherichia coli BL21 (DE3). The following applies: fixed concentration of 25 μM, RHKK-Ac-AMC, NI = no inhibition; for inhibition at 25 µM: read-out: Inhibition rate (%). On the procedure: The human full-length SIRT6 gene was inserted into the prokaryotic expression vector (pET-28a (+)). The verified recombinant plasmid was transformed into Escherichia coli BL21 (DE3) expression strain and cultured overnight at 37 °C on LB plates supplemented with 50 μg/mL kanamycin. Single colonies were inoculated in fluid kanamycin-containing LB mediums. It was shaken at 160 rpm for 16 h at 37 °C and transferred to kanamycin-containing LB medium at a ratio of 1:100. It was shaken at 160 rpm at 37 °C until the OD600 reached 0.6. The Isopropyl-β-d-thiogalactopyranoside was added to make the final concentration of solution 0.5 mmol/L, cultured for 15 °C and 160 rpm for 24 h.
T1 sequence (Q8N6T7 whole entry): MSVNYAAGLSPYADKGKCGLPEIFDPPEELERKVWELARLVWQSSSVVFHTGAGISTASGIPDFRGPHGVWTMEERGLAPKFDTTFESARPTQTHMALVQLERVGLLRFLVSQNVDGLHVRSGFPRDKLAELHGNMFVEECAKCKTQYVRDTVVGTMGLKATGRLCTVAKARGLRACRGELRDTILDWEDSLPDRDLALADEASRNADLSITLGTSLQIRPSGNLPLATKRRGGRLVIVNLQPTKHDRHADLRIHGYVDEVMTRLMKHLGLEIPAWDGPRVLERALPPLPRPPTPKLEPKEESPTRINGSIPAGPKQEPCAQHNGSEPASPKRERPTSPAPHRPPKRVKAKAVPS
Bacterial liquid was harvested at 12,000 rpm at 4 °C for 20 min, and then re-suspended in Lysis buffer (20 mmol/L Hepes pH 7.5, 20 mmol/L imidazole, 5% Glycerol, 500 mmol/L NaCl). Cell pellets were disrupted by high-pressure crusher (JNBIO, Guangzhou China) and centrifuged (4 °C, 12000 rpm, for 20 min). Supernatant was collected and purified by FPLC with a 1 mL Ni–NTA Sepharose column (GE Healthcare, Stamford, USA). The SIRT6 protein was eluted at containing 50 mM, 100 mM, 150 mM, 200 mM, and 500 mM imidazole in elution buffer. The purified SIRT6 protein was dialyzed in dialysis buffer (50 mM Tris-HCl, 137 mM NaCl, 2.7 mM KCl, 1 mM MgCl2). The purified SIRT6 protein was analyzed by SDS-PAGE.
Fluor-De-Lys (FDL) assays were used for the examination of the deacetylation activities of sirtuins as described previously. For the detection of SIRT6 activity, the 50-μL reaction mixture contained 5 μM SIRT6, 2.5 mM NAD^+ (β-Nicotinamide adenine dinucleotide hydrate, Sigma, N1636), 75 μM RHKK-Ac-AMC (GL Biochem, Shanghai), compounds/DMSO, and assay buffer. The reactions were incubated at 37 °C for 2 h, added 50 μL stop solution (40 mM nicotinamide, 6 mg/mL trypsin) at 25 °C for 30 min. Fluorescence intensity was measured at an excitation wavelength of 360 nm and an emission wavelength of 460 nm. IC50 values were calculated in GraphPad Prism version 8.00.

Experiment [2] addresses T1, SIRT6. The arrangement: endogenous in cells; host or cells: HeLa. The following applies: cited from earlier work.
In another experiment the test system is BXPC-3 cells. The experiment in a line: γ-H2AX DNA damage (immunofluorescence, western blot). It counts as cell-based. The following applies: BXPC-3, 10 nM gemcitabine, 6.25 μM 8a or combination, 24 h. Here is the method:
Cells were harvested and lysed in a lysis buffer (solarbio, R0010) supplementing 1 mM PMSF and protease inhibitor (TargetMol, USA). […] Then, the membranes were detected by Tanon 5200 (Tanon, Beijing, China). […]

In another experiment the test system is BXPC-3 xenografts. Kind of experiment: BXPC-3 tumor xenograft in nude mice. The class given is in vivo, BALB/c nude mice. The following applies: gemcitabine 10 mg/kg i.p. once every 2 days for 4 weeks. On the procedure:
Female BALB/c nude mice (14 ± 2 g, 4 weeks old) were purchase. About 2 × 10^6 of BXPC-3 cells were inoculated into nude mouse flanks. When the tumor volume reached approximately 100 mm^3, mice were randomly divided into four groups with six mice per group before treatment and then treated with vehicle, 8a (20 mg/kg), gemcitabine (10 mg/kg) and their combination every 2 days. Tumor volumes and body weight were measured every 3 days, and use the formula to calculate the tumor volume: V = (L × W × W)/2 (V, tumor volume; L, length; and W, width). Mice were sacrificed and tumor tissues were removed. Tumor tissues were fixed with paraformaldehyde (4%) and embedded with paraffin.
To further confirm whether 8a can enhance the antitumor effects of gemcitabine in vivo, the BXPC-3 PDAC xenografts were used. The mice with tumors received intraperitoneal injection of compound 8a (20 mg/kg), gemcitabine (10 mg/kg), or their combination once every 2 days for 4 weeks. Tumor volumes and body weight of mice were monitored every 3 days.

On to `Cn1c(-c2nccc3[nH]cnc23)cc(Br)c1Br` [Compound 1c], for which the inhibition at 25 µM on SIRT6 [1] is 3.7%.

`O=C(Nc1ccc(O)c(C(=O)O)c1)c1cccc(NC(=O)c2ccco2)c1` [OSS_128167]: the IC50 at SIRT6 [2] was 89 µM.

`Brc1cc(-c2nccc3c2ncn3CCCCCCN2CCOCC2)n(CCCCCCN2CCOCC2)c1Br` [Compound 11b]: the “Inhibition rate (%)” value on SIRT6 [1] turned out to be 23.8%.

As for `Brc1cc(-c2nccc3c2ncn3CCCCCCN2CCCCC2)[nH]c1Br.O=C(O)C(F)(F)F` [Compound 10d], the “Inhibition rate (%)” value at SIRT6 [1] is listed as 16.7%.

In the case of `O=C(O)C(F)(F)F.O=C1c2ccccc2C(=O)N1CCCCCCn1cnc2c(-c3cc(Br)c(Br)[nH]3)nccc21` [Compound 10c], the “Inhibition rate (%)” value on SIRT6 [1] was 6.4%.

Regarding `Nc1ccn([C@@H]2O[C@H](CO)[C@@H](O)C2(F)F)c(=O)n1` [gemcitabine], the γ-H2AX foci entry in the experiment with BXPC-3 cells was “can cause γ-H2AX foci”. In addition, the tumor mass inhibition in the experiment with BXPC-3 xenografts is on record as 30.1%.

Regarding `BrCCCCCCn1cnc2c(-c3cc(Br)c(Br)[nH]3)nccc21.O=C(O)C(F)(F)F` [Compound 4a], the “Inhibition rate (%)” value on SIRT6 [1] was 5.3%.

As to `Brc1cc(-c2nccc3[nH]cnc23)[nH]c1Br.O=C(O)C(F)(F)F` [Compound 2a], the “Inhibition rate (%)” value at SIRT6 [1] was determined as 4.1%.

`BrCCCCCCn1c(-c2nccc3c2ncn3CCCCCCBr)cc(Br)c1Br` [Compound 11a]: the inhibition at 25 µM on SIRT6 [1] was below 0%.

These data come from paper PMC10403574, “Discovery of a pyrrole-pyridinimidazole derivative as novel SIRT6 inhibitor for sensitizing pancreatic cancer to gemcitabine” (Cell Death & Disease, 2023).
